Values of other authors as cited in PMC6207715, “Determination of extended substrate specificity of the MALT1 as a strategy for the design of potent substrates and activity-based probes” (Scientific Reports, 2018).

Tests used:
Conditions in all cases: cited from earlier work
MALT1 = target: T1, MALT1 (Homo sapiens, UniProt Q9UDY8)
T1 sequence (Q9UDY8 1-824): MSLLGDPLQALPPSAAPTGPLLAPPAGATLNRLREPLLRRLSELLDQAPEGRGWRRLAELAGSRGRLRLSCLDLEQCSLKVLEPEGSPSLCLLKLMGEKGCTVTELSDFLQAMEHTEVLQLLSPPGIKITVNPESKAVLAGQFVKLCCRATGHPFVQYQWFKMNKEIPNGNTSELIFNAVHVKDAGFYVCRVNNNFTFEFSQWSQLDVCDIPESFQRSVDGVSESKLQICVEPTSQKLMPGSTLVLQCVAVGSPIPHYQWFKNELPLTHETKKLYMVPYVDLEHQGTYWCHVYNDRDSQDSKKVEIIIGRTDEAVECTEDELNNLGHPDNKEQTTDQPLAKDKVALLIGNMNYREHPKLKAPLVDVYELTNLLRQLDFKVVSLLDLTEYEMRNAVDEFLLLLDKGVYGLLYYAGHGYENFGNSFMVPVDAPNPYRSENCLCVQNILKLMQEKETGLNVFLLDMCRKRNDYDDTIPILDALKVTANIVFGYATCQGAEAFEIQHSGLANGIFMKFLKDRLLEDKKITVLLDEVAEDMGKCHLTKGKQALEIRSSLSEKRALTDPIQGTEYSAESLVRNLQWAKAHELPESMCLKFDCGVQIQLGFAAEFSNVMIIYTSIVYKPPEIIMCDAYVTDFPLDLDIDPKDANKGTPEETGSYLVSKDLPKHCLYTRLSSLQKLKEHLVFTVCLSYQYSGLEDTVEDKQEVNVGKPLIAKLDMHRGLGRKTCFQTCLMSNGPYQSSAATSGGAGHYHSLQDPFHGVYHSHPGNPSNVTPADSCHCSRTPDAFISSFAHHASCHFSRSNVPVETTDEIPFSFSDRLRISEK
From the text: (§1) Z-VRPR-FMK, which was originally designed as a plant metacaspase inhibitor[3], is the most frequently used MALT1 inhibitor and binds covalently to the MALT1 active site. Mepazine is another inhibitor of MALT1, but functions in a noncovalent and reversible manner, limiting its usefulness in studying the enzyme. […] Hachmann et al. described the first tetrapeptidic MALT1-activity-based probe, which was characterized by medium potency (kobs/I = 9, 300 M^−1s^−1)[2 ...

caspase -3 = test system: caspase -3
From the text: as §1

caspase -8 = test system: caspase -8
From the text: as §1

caspase -9 = test system: caspase -9
From the text: as §1

COCCOc1nc(-c2ccc(Cl)c(Cl)c2)n(-c2ccc(NC(=O)CCl)cc2)n1 [MI-2]
IC50 (MALT1): 5.84 µM
activity toward caspase -3 (caspase -3): exhibits activity
activity toward caspase -8 (caspase -8): exhibits activity
activity toward caspase -9 (caspase -9): exhibits activity
